This is an account of results in publication PMC8591201, “Anti-Tumor Activity of AZD4547 Against NTRK1 Fusion Positive Cancer Cells Through Inhibition of NTRKs” (Frontiers in Oncology, 2021).

For orientation: GI50 means the concentration giving 50% growth inhibition. For orientation: IC50 means the midpoint of a concentration-inhibition curve. Read a low IC50 as greater potency.

For data set [1], the system named is NCI-H1437. The data set can be described thus: cells. Also noted: Anti-proliferation, 10-point dose response, CellTiter-Glo luminescence (MTT stated for KM12(Luc)), GI50 fitted in Prism. Particulars: Homo sapiens, NCI-H1437, 72 h, read-out: GI50 (µM) a.
Data set [2] concerns GIST-T1. Briefly: cells. The arrangement: Anti-proliferation, 10-point dose response, CellTiter-Glo luminescence (MTT stated for KM12(Luc)), GI50 fitted in Prism. Particulars: Homo sapiens, GISTT1, 72 h, read-out: GI50 (µM) a.
Data set [3] concerns MIA-PaCa-2. Briefly: cells. The arrangement: Anti-proliferation, 10-point dose response, CellTiter-Glo luminescence (MTT stated for KM12(Luc)), GI50 fitted in Prism. Particulars: Homo sapiens, MIA PaCa-2, 72 h, read-out: GI50 (µM) a.
Data set [4] relates to HCT15. The data set can be described thus: cells. The arrangement: Anti-proliferation, 10-point dose response, CellTiter-Glo luminescence (MTT stated for KM12(Luc)), GI50 fitted in Prism. Particulars: Homo sapiens, HCT-15, 72 h, read-out: GI50 (µM) a.
A short description of data set [5]: in vitro. Also noted: CellTiter-Glo viability of parental Ba/F3 cells, counter-screen. The following applies: mouse, parental ba/f3 cells; read-out: AZD4547 parental. As to the method:
To obtain the GI50 value of a substance, cell viability was measured using MTT (G4000, Promega, USA) for KM12(Luc) cell and Cell titer glo (G7572, Promega, USA) for other cell lines. For adherent cells, cells were seeded at 5,000 cells/well in a 96-well plate and treated with a substance one day after cell seeding. For suspension cells, 10,000 cells/well were seeded and the substance was treated after 4 h stabilization of cells. The substance was treated at 10 points of 1:3 serial dilution (0–100 µmol/L) for 72 h. For MTT assay, 15 µL dye solution was added to each well and incubated 4 h at 37°C. 100 µL of solubilization solution was added and followed 1 hr incubation. Absorbance at 570 nm of each well was recorded using EnVision microplate reader (Perkin Elmer). For Cell titer glo assay, Cell titer glo reagent was treated in each well and measured the luminescence by EnVision microplate reader (Perkin Elmer). Viable cells in each well were normalized by using 0.5% DMSO-treated wells (100%). The inhibitor dose−response curve was fitted and GI50 values were calculated using Prism 7.0 software (GraphPad). All assays were performed in duplicate and the standard deviation (SD) was determined from two independent experiments. […] Cell viability after 72 h exposure to the indicated inhibitors, determined by using a cell titer glo assay in duplicate mode. […]

For data set [6], the target named is T1, TRKC (Homo sapiens, UniProt Q16288).
T1 construct: gene NTRK3
The data set can be described thus: radiometric biochemical kinase assay.

The target in data set [7] is T2, TRKB (Homo sapiens, UniProt Q16620).
T2 construct: gene NTRK2
Briefly: radiometric biochemical kinase assay.

Each structure is given as a SMILES string. A value given as a limit tells only on which side of the number the result lay.

T2 sequence (Q16620 32-822): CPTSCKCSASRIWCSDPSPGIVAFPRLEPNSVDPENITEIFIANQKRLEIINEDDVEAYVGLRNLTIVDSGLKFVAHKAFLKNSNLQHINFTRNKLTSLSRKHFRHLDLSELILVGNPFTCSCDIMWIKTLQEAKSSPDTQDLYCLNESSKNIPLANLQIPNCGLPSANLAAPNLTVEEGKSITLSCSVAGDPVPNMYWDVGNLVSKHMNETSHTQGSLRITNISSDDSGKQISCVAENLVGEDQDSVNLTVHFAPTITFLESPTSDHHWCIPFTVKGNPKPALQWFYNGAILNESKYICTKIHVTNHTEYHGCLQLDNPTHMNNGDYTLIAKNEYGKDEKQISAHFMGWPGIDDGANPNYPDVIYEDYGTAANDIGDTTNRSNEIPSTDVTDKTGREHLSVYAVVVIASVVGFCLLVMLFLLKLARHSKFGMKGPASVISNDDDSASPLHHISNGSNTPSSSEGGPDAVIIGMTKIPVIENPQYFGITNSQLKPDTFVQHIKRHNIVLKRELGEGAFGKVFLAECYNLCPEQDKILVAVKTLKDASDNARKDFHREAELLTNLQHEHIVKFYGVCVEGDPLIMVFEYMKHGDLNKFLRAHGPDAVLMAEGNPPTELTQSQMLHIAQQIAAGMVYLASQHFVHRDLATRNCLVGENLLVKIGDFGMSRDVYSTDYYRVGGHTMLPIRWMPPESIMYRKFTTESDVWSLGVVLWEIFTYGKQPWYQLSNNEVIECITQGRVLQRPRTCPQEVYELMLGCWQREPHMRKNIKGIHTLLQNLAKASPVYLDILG
T1 sequence (Q16288 32-839): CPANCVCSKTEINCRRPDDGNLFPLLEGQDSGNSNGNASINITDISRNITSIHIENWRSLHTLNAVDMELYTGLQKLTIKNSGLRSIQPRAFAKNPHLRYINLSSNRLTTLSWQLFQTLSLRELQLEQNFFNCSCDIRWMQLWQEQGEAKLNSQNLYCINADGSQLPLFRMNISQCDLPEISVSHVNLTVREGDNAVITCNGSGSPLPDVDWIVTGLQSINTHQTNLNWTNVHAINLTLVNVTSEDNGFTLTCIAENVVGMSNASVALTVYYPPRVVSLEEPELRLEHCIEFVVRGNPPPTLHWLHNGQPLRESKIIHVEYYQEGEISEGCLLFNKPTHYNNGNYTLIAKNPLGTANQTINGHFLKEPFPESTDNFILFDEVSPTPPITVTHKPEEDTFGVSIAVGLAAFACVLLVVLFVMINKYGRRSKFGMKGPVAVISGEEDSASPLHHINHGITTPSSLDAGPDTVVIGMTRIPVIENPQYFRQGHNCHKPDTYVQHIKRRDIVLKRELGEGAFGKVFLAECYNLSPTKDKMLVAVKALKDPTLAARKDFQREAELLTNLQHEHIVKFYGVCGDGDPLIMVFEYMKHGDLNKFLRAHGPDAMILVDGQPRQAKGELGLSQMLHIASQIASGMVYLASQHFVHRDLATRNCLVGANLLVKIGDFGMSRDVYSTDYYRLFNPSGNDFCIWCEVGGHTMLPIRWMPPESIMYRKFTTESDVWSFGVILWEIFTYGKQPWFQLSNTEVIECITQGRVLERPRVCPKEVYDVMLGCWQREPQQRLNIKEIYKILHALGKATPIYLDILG

In the case of `COc1cc(CCc2cc(NC(=O)c3ccc(N4C[C@@H](C)N[C@@H](C)C4)cc3)n[nH]2)cc(OC)c1` [AZD4547], the GI50 in data set [1] was determined as 40.3 µM; in data set [2], 1.09 µM; in data set [3] it was 12.2 µM; in data set [4] it was 15.8 µM. Moreover, the CC50 at 72 h in data set [5] is over 2 µM. In addition, the IC50 in data set [6] was found to be 0.001 µM; in data set [7], 0.0076 µM.
